# Results as given in patent US20070219208A1, “Methods for Treating Cancer” (priority 2006, published 2007).
# Entries after “also recorded” stand apart in the source; their conditions may differ.
# Tests used:
# [1] = system: NO2-/NO3- levels in MCF-7 cells; assay: Nitrite and nitrate measurements by chemiluminescence (NO analyzer); format: cell-based; details: for effect on statin-induced NO / NO2-/NO3- levels: with simvastatin or fluvastatin (10 μM), 40 h, mevalonate 20 μM, 1400 W 10 μM, sepiapterin 50 μM, compared to statin alone
# Procedure: Briefly, following treatments, cells were washed three times with DPBS after aspirating the medium. To this, 1 ml of Hanks' balanced salt mixture containing 25 μM L-arginine was added and incubated for 30 min at 37° C. The medium was collected and centrifuged for 5 min at 5000 rpm, and 50 μl of the clear supernatant was used for nitrate and nitrite analysis. Each sample was analyzed in triplicate.
# MCF-7 cells [2] = assay: Apoptosis by TUNEL assay; format: cell-based; details: with simvastatin or fluvastatin 5-10 μM, 48 h, 1400 W 10 μM, sepiapterin 50 μM, mevalonate 20 μM
# Excerpt: Measurement of Apoptosis by TUNEL Assay:
# The terminal deoxynucleotidyl transferase-mediated nick-end labeling (TUNEL) assay was used for microscopic detection of apoptosis (Kotamraju S, et al. J Biol Chem, 277:17179-87, 2002). This assay is based on labeling of 3′ free hydroxyl ends of the fragmented DNA with fluorescein-dUTP catalyzed by terminal deoxynucleotidyl transferase. Procedures were followed according to a commercially available kit (ApoAlert) from Clontech. […] The apoptotic cells were detected by fluorescence microscopy equipped with rhodamine and FITC filters. The quantification of apoptosis was performed using the Metamorph image analysis package.
# Under these conditions, NO2^−/NO3^− levels were decreased (FIG. 4B). […] Further verification that iNOS is involved in […] NO was obtained from inhibition of geranylgeranylation and farnesylation. […] In contrast, FTI-277 (farnesylation inhibitor) and sepiapterin had no effect on NO2^−/NO3^− levels (FIG. 4C). […] In the TUNEL assay, cells were treated with simvastatin or fluvastatin (5-10 μM) for 48 h in the presence or absence of 1400 W (10 μM), sepiapterin (50 μM) or mevalonate (20 μM) and stained for TUNEL-positive cells as an index of DNA fragmentation monitored by fluorescence microscopy (original magnification, ×100). Photographs were taken for the overlaid images of propidium iodide-and FITC-stained cells (TUNEL-positive cells). Yellow and red denote apoptotic and nonapoptotic cells, respectively. We observed that the TUNEL positive staining was enhanced in statin-treated MCF-7 cells. […] Pretreatment with 1400 W or mevalonate caused a decrease in the TUNEL positive cells.
# MCF-7 cells [3] = assay: Cell cycle analysis by flow cytometry; format: cell-based; details: 1400 W 10 μM, mevalonate 20 μM
# Procedure: For DNA content analysis, harvested cells were centrifuged at 1,000×g for 5 min, fixed by the gradual addition of ice-cold 70% ethanol, and washed with PBS. Cells were then treated with RNase (10 μg/mL) for 30 min at 37° C., washed once with PBS, and resuspended and stained in 1 mL of 69 μmol/L propidium iodide in 38 mmol/L sodium citrate for 30 min at room temperature. The cell cycle phase distribution was determined by analytic DNA flow cytometry as described in (Vindelov L, et al. Methods Cell Biol, 33:127-37, 1990). The percentage of cells in each phase of the cell cycle was analyzed using a Modfit software (Verity Software House, Topsham, Me.).
# As NO has previously been reported to exert tumor cell cycle alterations (Pervin S, et al. Natl Acad Sci USA 98:3583-3588, 2001), we investigated the cytostatic effect of statins in MCF-7 cells. MCF-7 cells were treated with simvastatin and fluvastatin for […] in the presence and absence of 1400 W (10 μM) and mevalonate (20 μM). Cell cycle progression was examined using FACScan flow cytometry analysis. […] As cell cycle progression from […] involves activations of the cell regulatory proteins, cyclins D and E, we investigated the effects of statins and iNOS inhibitor on the cell cycle proteins. […]
# [4] = system: cyclin D1, cyclin E and p27 in MCF-7 cells; assay: Cell cycle protein levels by Western analysis (cyclin D1, cyclin E, p27); format: cell-based; details: 1400 W 10 μM or mevalonate 20 μM
# Procedure: A (Table): The cell cycle distribution of MCF-7 cells treated with either simvastatin or fluvastatin (5-10 μM) for 40 h in the presence or 1400 W (10 μM) or mevalonate (20 μM). The cell sorting was performed by flow cytometry as described in “Materials and Methods.” B: Cells were treated with simvastatin or fluvastatin (10 μM) in the presence or absence of 1400 W (10 μM) or mevalonate (20 μM) for 40 h and cyclins D1 and E protein levels were measured by the Western analysis using the corresponding polyclonal or monoclonal antibodies. Data are representative of three separate experiments.
# After treatment with statins, cells were washed with ice-cold DPBS and resuspended in 150 μl of radioimmune precipitation assay buffer (20 mM Tris-HCl, pH 7.4, 2.5 mM EDTA, 1% Triton X-100, 1% sodium deoxycholate, 1% SDS, 100 mM NaCl, 100 mM sodium fluoride) containing 1 mM sodium vanadate, 10 μg/ml aprotinin, 10 μg/ml leupeptin, and 10 μg/ml pepstatin inhibitors. Cells were homogenized by passing the suspension through a 25-gauge needle (20 strokes). The lysate was centrifuged at 750×g for 10 min at 4° C. to pellet out the nuclei. The remaining supernatant was centrifuged for 30 min at 12,000×g. Protein was determined using the Lowry method and 50 μg of the lysate was used for the Western blot analysis. […] The band was detected using the ECL method (Amersham Biosciences).
# MCF-7 cells [5] = assay: Soft agar assay for colony formation (anchorage-independent growth); format: cell-based; details: for visible colony formation in soft agar: MCF-7 cells, 10 μM, treated 40 h, colonies after 21 days
# Procedure: Soft Agar Assay for Colony Formation:
# After cells were treated with various conditions, they were seeded in six-well plates. The plates were first covered with phenol red-free MEM containing 0.6% agar and 10% FBS. The middle layer contained cells (5×10^3) in phenol red-free MEM with 0.35% agar and 10% FBS. The top layer, consisting of the medium, was added to prevent drying of the agar in the plates. The plates were incubated for 21 days, after which the plates were stained in 0.5 ml of 0.005% crystal violet for 1 h and the cultures were inspected and photographed. The colony efficiency (CE) was determined by a count of the number of colonies greater than […] in diameter, which was calculated as the average of colonies counted at 50× magnification in five individual fields manually (Liu S, et al. Oncogene, 23:1256-62, 2004).
# The long-term effects of statins and the inhibitors on the proliferation and survival of MCF-7 cells were determined using clonogenic assays (Ramanathan B, et al. Cancer Res, 65:8455-60, 2005). The extent of malignancy of cells corresponds to the attainment of anchorage-independent growth (Liu S, et al. Oncogene, 23:1256-62, 2004). MCF-7 cells were treated with simvastatin or fluvastatin in the presence or absence of either 1400 W or mevalonate or sepiapterin. In separate experiments, cells were treated with either GGTI-298 or FTI-277. At the end of the treatments, approximately 5×10^3 cells were seeded onto a soft agar to determine their clonogenic efficiency after 21 days. […] In the presence of either 1400 W or mevalonate, the colony formation was restored in statin-treated cells (FIG. 6B).
# [6] = system: MCF-7 breast cancer cells; assay: MTT reduction cytotoxicity assay in MCF-7 cells; details: 48 h; for MCF-7 cell death (MTT assay) by isoprenylation inhibitors: 10-20 μM
# Procedure: MTT Reduction Cytotoxicity Assay:
# MTT is taken up by cells and is reduced to a colored formazon product that can be detected by spectrophotometry (max=562 nm). Reduction of MTT is dependent upon the mitochondrial respiratory function, and thus measures the relative number of viable cells in the culture. After the treatment was completed, MCF-7 cells were washed twice with DPBS and taken in a ml of MEM without FBS and incubated with 5 mg/ml MTT solution for 1 h at 37° C. Medium was removed and cells were solubilized in DMSO. The absorption was measured at 562 nm with reference at 630 nm.
# We assessed the effectiveness of simvastatin and fluvastatin to induce cytotoxicity in MCF-7 cells. MCF-7 breast cancer cells were treated with fluvastatin or simvastatin at different concentrations (0.5-20 μM) for 24-48 h. The changes in the number of viable cells were determined using the MTT assay that monitors the intracellular conversion of MTT to formazon spectrophotometrically max=562 nm).
# MCF-7 cells [7] = assay: 3H-thymidine uptake (DNA synthesis / cell proliferation); format: cell-based; details: 10-20 μM
# Procedure: Thymidine Uptake Studies:
# DNA synthesis was measured by monitoring the uptake of tritiated thymidine, [^3H]TdR (Perkin-Elmer, Boston, Mass.). Cells (5×10^5/ml) were cultured with different concentrations of simvastatin or fluvastatin (0-10 μM) in the presence or absence of mevalonate (20 μM), 1400 W, or sepiapterin. Cells were pulse-chased with [^3H]TdR [0.5 μCi (0.185 MBq)/well during the last 3 h of a 24 h culture, harvested onto glass filters with an automatic cell harvester (Cambridge Technology, Cambridge, Mass.), and counted using the LKB Betaplate scintillation counter (Wallac, Gaithersburg, Md.). All experiments were performed in triplicate and repeated three times.
# iNOS in MCF-7 cells = assay: iNOS mRNA (RT-PCR) and protein (Western) levels; format: cell-based; details: MCF-7 cells, 10-20 μM, 40 h, Western analysis
# Procedure: After treatment with statins, cells were washed with ice-cold DPBS and resuspended in 150 μl of radioimmune precipitation assay buffer (20 mM Tris-HCl, pH 7.4, 2.5 mM EDTA, 1% Triton X-100, 1% sodium deoxycholate, 1% SDS, 100 mM NaCl, 100 mM sodium fluoride) containing 1 mM sodium vanadate, 10 μg/ml aprotinin, 10 μg/ml leupeptin, and 10 μg/ml pepstatin inhibitors. Cells were homogenized by passing the suspension through a 25-gauge needle (20 strokes). The lysate was centrifuged at 750×g for 10 min at 4° C. to pellet out the nuclei. The remaining supernatant was centrifuged for 30 min at 12,000×g. Protein was determined using the Lowry method and 50 μg of the lysate was used for the Western blot analysis. Proteins were resolved using the SDS-polyacrylamide gels and blotted onto nitrocellulose membranes. Membranes were washed with TBS (140 mM NaCl, 50 mM Tris-HCl, pH 7.2) containing 0.1% Tween 20 (TBST) and 5% skim milk to block the non-specific protein binding. Membranes were incubated with 1 μg/ml rabbit anti-iNOS polyclonal antibody (Abeam, Cambridge, Mass.), mouse anti-cyclin D1 antibody, mouse anti-cyclin E antibody (BD Biosciences, San Jose, Calif.) or rabbit anti-p27 antibody (Chemicon International, Temecula, Calif.) in TBST for overnight at 4° C., washed 5 times with TBST, and then incubated with goat anti-rabbit or rabbit anti-mouse IgG-horseradish peroxidase-conjugated secondary antibody (1:5,000) for 1.5 h at room temperature. The band was detected using the ECL method (Amersham Biosciences).
# Following the treatments, medium was aspirated and 1 ml of TRIzol reagent (Invitrogen) was added and total RNA was extracted using the manufacturer's protocol. Five μg of RNA was used for the first strand cDNA synthesis using a first strand cDNA synthesis kit (Amersham Biosciences). […]
Compound,effect on statin-induced NO / NO2-/NO3- levels [1],effect on statin-induced TUNEL-positive cells (proapoptotic effect) (MCF-7 cells [2]),MCF-7 cell death (MTT assay) by isoprenylation inhibitors [6],loss of MCF-7 cell proliferation (3H-thymidine uptake) by isoprenylation inhibitors (MCF-7 cells [7]),iNOS protein levels by isoprenylation inhibitors (iNOS in MCF-7 cells),visible colony formation in soft agar (MCF-7 cells [5]),also measured
"CC(=N)NCc1cccc(CN)c1 [1400 W, N-(3-aminomethyl)benzylacetamidine]",inhibited; also recorded: decreased,decrease,,,,,effect on statin-induced cell cycle alterations (MCF-7 cells [3]): partially reversed; effect on statin-induced decrease of cyclin D1 and cyclin E [4]: restored in part; colony formation in statin-treated cells in the presence of modulator (MCF-7 cells [5]; 1400 W 10 μM or mevalonate 20 μM with statin 10 μM): restored
"COC(=O)[C@H](CCSC)NC(=O)c1ccc(NC[C@@H](N)CS)cc1-c1ccccc1 [FTI-277, methyl {N-[2-phenyl-4-N[2(R)-amino-3-mecaptopropylamino]benzoyl]}-methionate]",,,not,not,not,not,
CC(C)=CCC/C(C)=C/CC/C(C)=C/CC/C=C(\C)CC/C=C(\C)CCC=C(C)C [squalene],,,,,,,"effect on statin-induced MCF-7 cell cytotoxicity (MTT assay) ([6]; pretreatment before simvastatin or fluvastatin (10 μM), mevalonate 20 μM, 1400 W 10 μM): did not prevent"
N-nitroso-fluvastatin [NO-fluvastatin],,,,,,,potency in causing MCF-7 cell death compared to fluvastatin alone (MTT assay) ([6]; 0-1 μM): more potent
"COC(=O)[C@H](CC(C)C)NC(=O)c1ccc(NC[C@@H](N)CS)cc1-c1cccc2ccccc12 [GGTI-298, N-4-[2(R)-amino-3-mercaptopropyl]amino-2-naphthylbenzoyl-(L)-leucine methyl ester]",,,induced MCF-7 cell death,loss of cell proliferation,dose-dependently induced,drastically lowered,
C[C@H](O)C(=O)C1=Nc2c(nc(N)[nH]c2=O)NC1 [sepiapterin],significantly increased,exacerbated,,,,,"NO2-/NO3- levels, sepiapterin with FTI-277 ([1]; MCF-7 cells): no effect; NO2-/NO3- levels, sepiapterin with GGTI-298 compared to GGTI-298 alone ([1]; MCF-7 cells): significantly increased; NO2-/NO3- levels, sepiapterin alone ([1]; in the absence of statin): did not increase; effect on statin-induced TUNEL-positive cells (proapoptotic effect) (MCF-7 cells [2]; listed as Sepiapterin): further augmented; colony growth, sepiapterin supplementation with simvastatin or fluvastatin (MCF-7 cells [5]; lower concentration of simvastatin or fluvastatin (5 μM), sepiapterin 50 μM): completely inhibited"
